Results taken from ChEMBL document CHEMBL1124765, “Synthesis and biological properties of novel phosphotriesters: a new approach to the introduction of biologically active nucleotides into cells” (J Med Chem, 1990).

Assay: pKa value was determined
Assay type: physicochemical

| Structure (SMILES) | pKa |
| --- | --- |
| CC(=O)O[C@H]1C[C@H](n2cc(C)c(=O)[nH]c2=O)O[C@@H]1COP(=O)(OC[C@H]1O[C@@H](n2cc(C)c(=O)[nH]c2=O)C[C@@H]1OC(C)=O)Oc1ccccc1Cl | 8.48 |
| CC(=O)O[C@H]1C[C@H](n2cc(C)c(=O)[nH]c2=O)O[C@@H]1COP(=O)(OC[C@H]1O[C@@H](n2cc(C)c(=O)[nH]c2=O)C[C@@H]1OC(C)=O)Oc1ccc([N+](=O)[O-])cc1 | 7.16 |
| CC(=O)O[C@H]1C[C@H](n2cc(C)c(=O)[nH]c2=O)O[C@@H]1COP(=O)(OC[C@H]1O[C@@H](n2cc(C)c(=O)[nH]c2=O)C[C@@H]1OC(C)=O)Oc1cc(Cl)ccc1Cl | 7.5 |
| CC(=O)O[C@H]1C[C@H](n2cc(C)c(=O)[nH]c2=O)O[C@@H]1COP(=O)(OC[C@H]1O[C@@H](n2cc(C)c(=O)[nH]c2=O)C[C@@H]1OC(C)=O)Oc1ccc(Cl)cc1 | 9.38 |
| CSc1ccc(OP(=O)(OC[C@H]2O[C@@H](n3cc(C)c(=O)[nH]c3=O)C[C@@H]2OC(C)=O)OC[C@H]2O[C@@H](n3cc(C)c(=O)[nH]c3=O)C[C@@H]2OC(C)=O)cc1 | 9.53 |
